“Also recorded” adds a separate entry of the source.
What was measured:
μ opioid receptor = μ opioid receptor (Cavia porcellus, UniProt A0ACM8Q262); assay: competitive binding assay with [3H]DAMGO in guinea pig brain membranes; conditions: for affinity for the μ opioid receptor, in words: comparator, if any, as in the value; for Ki: read-out: Ki, μ opioid receptor, [3H]DAMGO, guinea pig brain membranes
δ opioid receptor = molecular target: T1, δ opioid receptor (Cavia porcellus, UniProt A0A286XTF2); assay: competitive binding assay with [3H]naltrindole in guinea pig brain membranes
T1 construct: from tissue; host or cells: guinea pig brain membranes

κ opioid receptor = molecular target: T2, κ opioid receptor (Cavia porcellus, UniProt P41144); assay: competitive binding assay with [3H]U69,593 in guinea pig brain membranes; conditions: for affinity for the κ opioid receptor, in words: comparator, if any, as in the value; for increase in affinity at the κ opioid receptor: relative to levorphanol; for κ/δ selectivity: κ versus δ binding
T2 construct: from tissue; host or cells: guinea pig brain membranes

For `Oc1ccc2c(c1)[C@@]13CCCC[C@H]1[C@@H](C2)N(CCCF)CC3` [Compound 3], the “affinity for the μ opioid receptor, in words” value (μ opioid receptor) was “high affinity”, the Ki (μ opioid receptor) was 180 pM and the Ki (δ opioid receptor) was 850 pM. The Ki (κ opioid receptor) was 83 pM and the “affinity for the κ opioid receptor, in words” value (κ opioid receptor) was “high affinity”.
In the case of `COCCN1CC[C@]23CCCC[C@H]2[C@H]1Cc1ccc(O)cc13` [Compound 6], the “affinity for the μ opioid receptor, in words” value (μ opioid receptor) is reported as “high affinity”, the Ki (μ opioid receptor) is reported as 110 pM and the Ki (κ opioid receptor) is reported as 94 pM. For the same compound, the “affinity for the κ opioid receptor, in words” value (κ opioid receptor) was “high affinity”.
`C=CCN1CC[C@]23CCCC[C@H]2[C@H]1Cc1ccc(O)cc13` [Compound 8, levallorphan, reference compound] was tested, and the “change in affinity for the μ opioid receptor, in words” value (μ opioid receptor; relative to levorphanol) was “almost no changes in affinity”, the “change in affinity for the δ opioid receptor, in words” value (δ opioid receptor; relative to levorphanol) was “almost no changes in affinity” and the “increase in affinity at the κ opioid receptor” value (κ opioid receptor) was 15 fold.
For `I/C=C/CN1CC[C@]23CCCC[C@H]2[C@H]1Cc1ccccc13` [Compound 34, N-(3-iodoprop-(2E)-enyl)morphinan], the “affinity for the μ opioid receptor, in words” value (μ opioid receptor) was “Ki values in the picomolar range; also recorded: very high affinity”, the “decreased affinity for the δ opioid receptor” value (δ opioid receptor; in comparison to compound 9) was 43 fold and the “affinity for the κ opioid receptor, in words” value (κ opioid receptor) was “Ki values in the picomolar range; also recorded: very high affinity”. The “decreased affinity for the κ opioid receptor” value (κ opioid receptor; in comparison to compound 9) was 10 fold.
In the case of `I/C=C\CN1CC[C@]23CCCC[C@H]2[C@H]1Cc1ccccc13` [Compound 35, N-(3-iodoprop-(2Z)-enyl)morphinan], the “decreased affinity for the μ receptor” value (μ opioid receptor; relative to 34) is reported as 100 fold and the “decreased affinity for the κ receptor” value (κ opioid receptor; relative to 34) is reported as 17 fold.
`Oc1ccc2c(c1)[C@@]13CCCC[C@H]1[C@@H](C2)N(CC1CCC1)CC3` [MCL-101, reference compound] was tested, and the “affinity for the μ opioid receptor, in words” value (μ opioid receptor) was “almost the same affinity for the μ and κ opioid receptors as cyclorphan”, the “increase in affinity at the μ opioid receptor” value (μ opioid receptor; relative to levorphanol) was 2 fold and the “increase in affinity at the δ opioid receptor” value (δ opioid receptor; relative to levorphanol) was 3 fold. The “affinity for the κ opioid receptor, in words” value (κ opioid receptor) was “almost the same affinity for the μ and κ opioid receptors as cyclorphan”, the “increase in affinity at the κ opioid receptor” value (κ opioid receptor) was 30 fold and the κ/δ selectivity (κ opioid receptor) was 18 fold.
For `Oc1ccc2c(c1)[C@@]13CCCC[C@H]1[C@@H](C2)N(CC1CC1)CC3` [cyclorphan, reference compound], the κ/δ selectivity (κ opioid receptor) was 4 fold.
